Experiment [1] has as its system spinal nerve ligation-induced neuropathic pain in rats. As to the kind of experiment: Rat spinal nerve ligation (SNL) model of neuropathic pain, von Frey paw withdrawal threshold. In kind it is in vivo. As to conditions: SNL dose 100 mg/kg; male Sprague Dawley rats, mechanical sensitivity (von Frey). From the text: Rat Spinal Nerve Ligation (SNL) Model of Neuropathic Pain.
A model of spinal nerve ligation-induced (SNL model) neuropathic pain as originally described by Kim and Chung (Kim, S. H. and J. M. Chung, 1992, Pain 50, 355) was used to test a compound of the present application. The male Sprague Dawley rats (Charles River Laboratories, Wilmington, Mass.), weighing 150-175 g at the time of surgery, were placed under isoflurane anesthesia and a 1.5 cm incision was made dorsal to the lumbosacral plexus. The paraspinal muscles (left side) were separated from the spinous processes, the left L5 and L6 spinal nerves isolated, and tightly ligated with 5-0 silk suture distal to the dorsal root ganglion. Care was taken to avoid ligating the L4 spinal nerve. Following spinal nerve ligation, a minimum of 7 days of recovery and no more than 3 weeks was allowed prior to the behavioral testing (mechanical sensitivity). Only rats with threshold scores ≦4.5 g were considered allodynic and utilized in pharmacological experiments.
Mechanical sensitivity was measured using calibrated von Frey filaments (Stoelting, Wood Dale, Ill.). Paw withdrawal threshold (PWT) was determined by using the Dixon's up-down method (Dixon, W. J., 1980, Ann. Rev. Pharmacol. Toxicol., 20, 441). Rats were placed into inverted individual plastic containers (20×12.5×20 cm) on top of a suspended wire mesh with a 1 cm^2 grid to provide access to the ventral side of the hind paws, and acclimated to the test chambers for 20 minutes. The von Frey filaments were presented perpendicularly to the plantar surface of the selected hind paw, and then held in this position for approximately 8 seconds with enough force to cause a slight bend in the filament. Positive responses included an abrupt withdrawal of the hind paw from the stimulus, or flinching behavior immediately following removal of the stimulus. A 50% withdrawal threshold was determined using an up-down procedure (Dixon, 1980). A percent maximal possible effect (% MPE) of testing compound was calculated according to the formula: (Log [compound-treated threshold]−Log [vehicle-treated threshold])/(Log [maximum threshold]−Log [vehicle-treated threshold])×100%, where the maximum threshold was equal to 15 g.
The animals were housed in Association for Assessment and Accreditation of Laboratory Animal Care (AAALAC) approved facilities at AbbVie Inc. in a temperature-regulated environment under a controlled 12-hour light-dark cycle, with lights on at 6:00 a.m. Food and water were available ad libitum at all times except during testing. All testing was done following procedures outlined in protocols approved by AbbVie Inc.s' Institutional Animal Care and Use Committee.

Experiment [2] relates to MIA-induced osteoarthritic pain in rats. The experiment can be described thus: Osteoarthritic (OA) pain induced by sodium monoiodoacetate (MIA), hind limb grip force. In kind it is in vivo, rat. To be noted: male Sprague Dawley rats, grip force 20 days after MIA injection.

The record followed here is patent US9783527B2, “Indazole ureas and method of use” (AbbVie Inc., priority 2014, dated 2017).

As to `Cc1noc(C(C)N2CCN(c3cccc4c3cnn4-c3ccccc3F)C2=O)n1` (racemic) [Example 46, 1-[1-(2-fluorophenyl)-1H-indazol-4-yl]-3-[1-(3-methyl-1,2,4-oxadiazol-5-yl)ethyl]imidazolidin-2-one], the “SNL MPE (%)” value in experiment [1] was determined as 59%. Also, the “OA MPE (%)” value in experiment [2] (OA dose 30 mg/kg) is 69%.

Turning to `C[C@H]1CCCN1C(=O)CN1CCN(c2cccc3c2cnn3-c2ccccc2F)C1=O` [Example 15, 1-[1-(2-fluorophenyl)-1H-indazol-4-yl]-3-{2-[(2S)-2-methylpyrrolidin-1-yl]-2-oxoethyl}imidazolidin-2-one], the “SNL MPE (%)” value in experiment [1] stood at 74%. Moreover, the “OA MPE (%)” value in experiment [2] (OA dose 30 mg/kg) is on record as 68%.

Regarding `Cc1noc(C)c1CN1CCN(c2cccc3c2cnn3-c2ccccc2F)C1=O` [Example 27, 1-[(3,5-dimethyl-1,2-oxazol-4-yl)methyl]-3-[1-(2-fluorophenyl)-1H-indazol-4-yl]imidazolidin-2-one], in experiment [1], the “SNL MPE (%)” value came to 63%. Besides, in experiment [2] (OA dose 10 mg/kg), the “OA MPE (%)” value is recorded as 57%.

On to `O=C(CN1CCN(c2cccc3c2cnn3-c2ccccc2F)C1=O)N[C@@H]1CCOC1` [Example 55, 2-{3-[1-(2-fluorophenyl)-1H-indazol-4-yl]-2-oxoimidazolidin-1-yl}-N-[(3R)-tetrahydrofuran-3-yl]acetamide], for which the “SNL MPE (%)” value in experiment [1] stood at 91%. Moreover, the “OA MPE (%)” value in experiment [2] (OA dose 30 mg/kg) came out at 66%.
